In article PMC6563844, “Identification and in vivo Efficacy Assessment of Approved Orally Bioavailable Human Host Protein-Targeting Drugs With Broad Anti-influenza A Activity” (Frontiers in Immunology, 2019):
Like-named read-outs stand apart in the source and are kept apart here.

Experiments:
[1] = tested on: H1N1 A/Puerto Rico/8/34 (PR8)
[2] = tested on: H3N2 (A/Victoria/36/2011); assay: microbe, parasite or virus in culture; format: cell-based, influenza A virus
[3] = tested on: H1N1 and H3N2 influenza A viruses (PR8, H1N1pdm09, H3N2); assay: microbe, parasite or virus in culture; format: cell-based
[4] = tested on: H1N1pdm09 (A/Mexico/InDRE4487/2009); set-up: species or system ferrets (mustela putorius furo); details: in vivo
PR8 [5] = tested on: PR8; set-up: species or system C57BL/6 mice; details: mouse, in vivo, po
PR8 [6] = assay: microbe, parasite or virus in culture; format: cell-based, influenza A virus
MTT assay (cytotoxicity) = details: dog
Description: (§1) The MTT assay was performed according to the manufacturer's protocol (Thermo Fisher Vybrant MTT Cell Proliferation Assay Kit). Briefly, MDCK cells grown in a 96-well-plate were treated with the respective drugs at 5-fold descending concentrations starting at 500 mM or left untreated. After 24 h, medium was replaced by PBS containing 1 mM MTT. After incubation for 4 h at 37°C, supernatants were removed, mixed with DMSO and further incubated for 10 min at 37°C before absorption was measured at 562 nm using a PHOmo Microplate reader. To calculate the relative cytotoxicity, the absorbance of untreated cells was set to 1. The 50% cytotoxic concentration (CC50) was calculated using GraphPad 6, and the selectivity index (SI) represents the ratio of CC50 to EC50.

[7] = tested on: influenza strains A/Puerto Rico/8/34 (PR8), A/Mexico/InDRE4487/2009 (H1N1pdm09), A/Victoria/36/2011 (H3N2); format: cell-based, influenza A virus
[8] = tested on: pH1N1 (H1N1pdm09 A/Mexico/InDRE4487/2009); assay: microbe, parasite or virus in culture; format: cell-based, influenza A virus
MDCK cells = assay: MTT assay (cytotoxicity); details: MDCK cells, 24 h, MTT
Description: as §1

in vitro = details: dog
Description: as §1

[9] = read-out: EC50 (50% effective dose)

**Q.** Which Inhibitory effect [1] does the source give for `Nc1ncnc2c1ncn2[C@@H]1O[C@H](COP(=O)(O)OP(=O)(O)OP(=O)(O)O)[C@@H](O)[C@H]1O` [Adenosine triphosphate] here?
**A.** No inhibition

**Q.** What about the “antiviral activity in initial screen” value [1] of the same compound?
**A.** no antiviral activity

**Q.** What does the source list for `NCCCC(O)(P(=O)(O)O)P(=O)(O)O` [Alendronate]?
**A.** Inhibitory effect [1]: toxic; antiviral activity [1]: no antiviral activity

**Q.** Which results are given for `N=C(N)NC(=O)c1nc(Cl)c(N)nc1N` [Amiloride]?
**A.** Inhibitory effect [1]: No inhibition; antiviral activity in initial screen [1]: no antiviral activity

**Q.** With `CN(C)/N=N/c1[nH]cnc1C(N)=O` [Dacarbazine] as the compound, how does the Inhibitory effect [1] read?
**A.** no inhibition

**Q.** What about the “antiviral activity in initial screen” value [1] of the same compound?
**A.** no antiviral activity

**Q.** With `COc1ccc2c(c1)[C@]13CCCC[C@@H]1[C@H](C2)N(C)CC3` [Dextromethorphan] as the compound, how does the EC50 ([2]; Influenza A virus, H3N2, MDCK) read?
**A.** 51.7 ± 4.2 µM

**Q.** And the EC50 [3, 9]?
**A.** 5 to 50 µM

**Q.** What about the clinical score [4] of the same compound?
**A.** significantly lower peak score

**Q.** What about the weight loss [4] of the same compound?
**A.** < 10%

**Q.** And the body weight effect ([4]; po)?
**A.** slightly increase the weight loss

**Q.** What about the “effect on nasal wash titers” value ([4]; po) of the same compound?
**A.** no effect

**Q.** And the “effect on lung viral titers” value (PR8 [5])?
**A.** more variable but significant reduction

**Q.** What about the EC50 (PR8 [6]; Influenza A virus, PR8, MDCK) of the same compound?
**A.** 48.7 ± 2.3 µM

**Q.** What about the CC50 at 24 h (MTT assay (cytotoxicity)) of the same compound?
**A.** 3546 ± 11.1 µM

**Q.** And the “reduction of viral titers” value [7]?
**A.** around 1,000 fold

**Q.** And the EC50 ([8]; Influenza A virus, MDCK, pH1N1)?
**A.** 50.8 ± 3.3 µM

**Q.** What about the “Inhibitory effect (fold inhibition)” value [1] of the same compound?
**A.** >10-fold inhibition

**Q.** And the “antiviral activity in initial screen” value [1]?
**A.** able to inhibit infection at doses above 50 μM without causing toxicity

**Q.** Which Inhibitory effect [1] does the source give for `CC(O)(P(=O)(O)O)P(=O)(O)O` [Etidronic Acid] here?
**A.** No inhibition

**Q.** And the “antiviral activity in initial screen” value [1]?
**A.** no antiviral activity

**Q.** Which results are given for `O=[N+]([O-])[O-].O=[N+]([O-])[O-].O=[N+]([O-])[O-].[Ga+3]` [Gallium nitrate]?
**A.** EC50 ([2]; read-out: EC50): 5.7 ± 0.9 µM; effect on lung viral titers (PR8 [5]): no significant effect; EC50 (PR8 [6]; read-out: EC50): 54.8 ± 2.2 µM; CC50 (MDCK cells): 716 ± 116 µM; reduction of viral titers [7]: around 10 fold; EC50 ([8]; pH1N1): 55.3 ± 2.9 µM; Inhibitory effect (fold inhibition) [1]: >10-fold inhibition; antiviral activity in initial screen [1]: able to inhibit infection at doses above 50 μM without causing toxicity

**Q.** For `CCCCC1=NC2(CCCC2)C(=O)N1Cc1ccc(-c2ccccc2-c2nnn[nH]2)cc1` [Irbesartan], which Inhibitory effect [1] is on record?
**A.** toxic

**Q.** What about the antiviral activity [1] of the same compound?
**A.** no antiviral activity

**Q.** What about the “toxicity in the screen” value [1] of the same compound?
**A.** pronounced toxicity

**Q.** For `CC(C)NCC(O)c1ccc(O)c(O)c1` (centres unmarked) [Isoproterenol], which Inhibitory effect [1] is on record?
**A.** toxic

**Q.** What about the antiviral activity [1] of the same compound?
**A.** no antiviral activity

**Q.** What about the “toxicity in the screen” value [1] of the same compound?
**A.** pronounced toxicity

**Q.** With `CN1CCC(=C2c3ccccc3CC(=O)c3sccc32)CC1` [Ketotifen] as the compound, how does the EC50 ([2]; Influenza A virus, H3N2, MDCK) read?
**A.** 48.5 ± 2 µM

**Q.** And the EC50 [3, 9]?
**A.** 5 to 50 µM

**Q.** What about the EC50 (PR8 [6]; Influenza A virus, PR8, MDCK) of the same compound?
**A.** 5.9 ± 0.2 µM

**Q.** And the “reduction of viral titers” value [7]?
**A.** 100 fold

**Q.** What about the CC50 at 24 h (in vitro) of the same compound?
**A.** 291 ± 14.8 µM

**Q.** What about the EC50 ([8]; Influenza A virus, MDCK, pH1N1) of the same compound?
**A.** 33.7 ± 1.3 µM

**Q.** What about the “Inhibitory effect (fold inhibition)” value [1] of the same compound?
**A.** >10-fold inhibition

**Q.** And the “antiviral activity in initial screen” value [1]?
**A.** able to inhibit infection at doses above 50 μM without causing toxicity

**Q.** For `N[C@@H](CCC(=O)O)C(=O)O` [L-Glutamic Acid], which Inhibitory effect [1] is on record?
**A.** No inhibition

**Q.** And the “antiviral activity in initial screen” value [1]?
**A.** no antiviral activity

**Q.** For `CC(=O)N[C@@H]1[C@@H](O)[C@H](O)[C@@H](CO)O[C@@H]1O` [N-Acetyl-D-Glucosamine], which Inhibitory effect [1] is on record?
**A.** No inhibition

**Q.** And the “antiviral activity in initial screen” value [1]?
**A.** no antiviral activity

**Q.** With `O=C1CC[C@@]2(O)[C@H]3Cc4ccc(O)c5c4[C@@]2(CCN3CC2CC2)[C@H]1O5` [Naltrexone] as the compound, how does the inhibition efficiency [2] read?
**A.** less efficient

**Q.** What about the EC50 ([2]; Influenza A virus, H3N2, MDCK) of the same compound?
**A.** > 500 µM

**Q.** What about the EC50 [3] of the same compound?
**A.** 5 to 50 µM

**Q.** And the “effect on lung viral titers” value (PR8 [5])?
**A.** no significant effect

**Q.** What about the EC50 (PR8 [6]; Influenza A virus, PR8, MDCK) of the same compound?
**A.** 4.7 ± 0.2 µM

**Q.** And the CC50 at 24 h (MTT assay (cytotoxicity))?
**A.** 5230 ± 227 µM

**Q.** And the “reduction of viral titers” value [7]?
**A.** 100 fold

**Q.** And the EC50 ([8]; Influenza A virus, MDCK, pH1N1)?
**A.** 48 ± 3.2 µM

**Q.** And the “Inhibitory effect (fold inhibition)” value [1]?
**A.** >10-fold inhibition

**Q.** What about the “antiviral activity in initial screen” value [1] of the same compound?
**A.** able to inhibit infection at doses above 50 μM without causing toxicity

**Q.** Which clinical score [4] does the source give for `CCOC(=O)C1=C[C@@H](OC(CC)CC)[C@H](NC(C)=O)[C@@H](N)C1` [Oseltamivir phosphate, oseltamivir phosphate] here?
**A.** minimal clinical score peaking on day 3

**Q.** And the “reduction in nasal wash titers” value ([4]; po)?
**A.** 10 fold

**Q.** And the “reduction of lung titers” value (PR8 [5])?
**A.** 28 fold

**Q.** For `CCOC(=O)C1=C[C@@H](OC(CC)CC)[C@H](NC(C)=O)[C@@H](N)C1` [Oseltamivir], which EC50 ([2]; Influenza A virus, H3N2, MDCK) is on record?
**A.** 0.05 ± 0.003 µM

**Q.** What about the EC50 (PR8 [6]; Influenza A virus, PR8, MDCK) of the same compound?
**A.** 0.005 ± 0.0004 µM

**Q.** What about the CC50 at 24 h (in vitro) of the same compound?
**A.** 470 ± 12.3 µM

**Q.** What about the EC50 ([8]; Influenza A virus, MDCK, pH1N1) of the same compound?
**A.** 0.2 ± 0.05 µM

**Q.** For `O=C1CCC(N2C(=O)c3ccccc3C2=O)C(=O)N1` (centres unmarked) [Thalidomide], which Inhibitory effect [1] is on record?
**A.** No inhibition

**Q.** What about the “antiviral activity in initial screen” value [1] of the same compound?
**A.** no antiviral activity

**Q.** What does the source list for `CC[C@]1(O)C[C@@H]2CN(CCc3c([nH]c4ccccc34)[C@@](C(=O)OC)(c3cc4c(cc3OC)N(C)[C@H]3[C@@](O)(C(=O)OC)[C@H](OC(C)=O)[C@]5(CC)C=CCN6CC[C@]43[C@@H]65)C2)C1` [Vinblastine]?
**A.** Inhibitory effect [1]: toxic; antiviral activity [1]: no antiviral activity; toxicity in the screen [1]: pronounced toxicity

**Q.** For `CCC(CC)O[C@@H]1C=C(C(=O)O)C[C@H](N)[C@H]1NC(C)=O` [oseltamivir carboxylate], which EC50 (PR8 [6]; read-out: EC50) is on record?
**A.** 0.005 µM

**Q.** What about the “concentration completely inhibiting replication” value [7] of the same compound?
**A.** higher than 5 μM

**Q.** What about the EC50 [8] of the same compound?
**A.** ~0.2 µM
